Experimental data reported in ChEMBL document CHEMBL1133131, “Discovery of an orally bioavailable alkyl oxadiazole beta3 adrenergic receptor agonist” (Bioorg Med Chem Lett, 2000).
Active and inactive are the calls of the source. The rule behind the calls is not given here.

How the values were obtained:
[1] = biological target: Beta-2 adrenergic receptor (Homo sapiens, UniProt P07550); test: Binding affinity towards Beta-2 adrenergic receptor prepared from CHO cells expressing the cloned human receptor in the presence of [125I]iodocyanopindolol; format: cell-based
Beta-2 adrenergic receptor, sequence (P07550 whole entry): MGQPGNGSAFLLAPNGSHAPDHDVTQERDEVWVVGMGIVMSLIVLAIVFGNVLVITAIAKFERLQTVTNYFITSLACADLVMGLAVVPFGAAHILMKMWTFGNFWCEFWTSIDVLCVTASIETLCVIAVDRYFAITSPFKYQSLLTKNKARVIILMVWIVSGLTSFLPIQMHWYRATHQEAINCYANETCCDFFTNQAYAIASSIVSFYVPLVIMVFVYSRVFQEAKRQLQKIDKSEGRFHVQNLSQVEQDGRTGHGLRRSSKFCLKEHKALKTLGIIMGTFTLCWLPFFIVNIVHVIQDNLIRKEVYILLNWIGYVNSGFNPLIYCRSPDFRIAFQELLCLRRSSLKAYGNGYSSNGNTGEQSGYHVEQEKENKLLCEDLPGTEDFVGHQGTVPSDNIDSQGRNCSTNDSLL

[2] = biological target: T1, Beta-3 adrenergic receptor (Homo sapiens, UniProt P13945); test: Adenylyl cyclase activation as percent maximal isoproterenol stimulation of CHO cells expressing beta-3 receptor; format: functional, cell-based
Target sequence in this assay (P13945 whole entry, looked up): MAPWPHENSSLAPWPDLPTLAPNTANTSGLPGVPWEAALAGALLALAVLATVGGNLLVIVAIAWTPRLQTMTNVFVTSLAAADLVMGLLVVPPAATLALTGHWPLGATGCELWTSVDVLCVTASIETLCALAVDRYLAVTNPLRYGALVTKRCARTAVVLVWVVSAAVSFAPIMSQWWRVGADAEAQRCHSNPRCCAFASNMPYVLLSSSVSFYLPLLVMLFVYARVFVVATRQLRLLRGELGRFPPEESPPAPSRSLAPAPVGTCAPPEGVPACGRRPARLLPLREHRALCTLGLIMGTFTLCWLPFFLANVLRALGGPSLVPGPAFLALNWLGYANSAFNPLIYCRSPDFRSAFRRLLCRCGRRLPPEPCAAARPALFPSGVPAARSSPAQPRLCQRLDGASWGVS

[3] = biological target: Beta-1 adrenergic receptor (Homo sapiens, UniProt P08588); test: Binding affinity towards cloned human Beta-1 adrenergic receptor prepared from CHO cells in the presence of [125I]iodocyanopindolol; format: cell-based
Beta-1 adrenergic receptor, sequence (P08588 whole entry): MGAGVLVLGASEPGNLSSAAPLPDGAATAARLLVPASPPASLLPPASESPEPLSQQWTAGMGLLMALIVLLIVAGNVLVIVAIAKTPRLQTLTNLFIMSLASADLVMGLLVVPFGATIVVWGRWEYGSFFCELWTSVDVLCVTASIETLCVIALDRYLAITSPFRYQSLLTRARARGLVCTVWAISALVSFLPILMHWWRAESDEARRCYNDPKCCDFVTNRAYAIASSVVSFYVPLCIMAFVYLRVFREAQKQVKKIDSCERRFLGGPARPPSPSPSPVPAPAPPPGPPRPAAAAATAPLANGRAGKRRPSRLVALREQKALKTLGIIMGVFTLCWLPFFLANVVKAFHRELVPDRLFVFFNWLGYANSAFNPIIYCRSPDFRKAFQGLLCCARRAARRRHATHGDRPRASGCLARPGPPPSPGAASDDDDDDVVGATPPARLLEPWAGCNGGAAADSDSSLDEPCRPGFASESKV

[4] = biological target: T1, Beta-3 adrenergic receptor; test: Agonist activity as increasedn cAMP production in Chinese hamster ovary (CHO)cells expressing human beta-3 adrenergic receptor; format: functional
Target sequence in this assay (P13945 whole entry): as the sequence (P13945 whole entry, looked up) above

Monkey [5] = test: The compound was evaluated for dose- dependent elevation of plasma glycerol in anesthetized rhesus; format: functional; conditions: Cercopithecidae, in Macaca mulatta
[6] = Half life in rats; format: ADME, organism-based; conditions: rat, in vivo
Monkey [7] = test: The compound was tested for the percent increase in heart rate at the dose level of 10 mg/kg; No significant alteration; format: functional, organism-based; parameters: dose 10 mg/kg; conditions: Cercopithecidae
[8] = Half life in dog; format: ADME, organism-based, Canis lupus familiaris; conditions: in vivo
[9] = Oral bioavailability of intravenously administered compound (3 mg/kg) was tested in rats; format: ADME, organism-based; conditions: rat, in vivo, intravenous
[10] = Oral bioavailability of perorally administered compound (10 mg/kg) was tested in dogs; format: ADME, organism-based, Canis lupus familiaris; conditions: dog, in vivo

SMILES | IC50 [1] | Activation [2] | IC50 [3] | EC50 [4] | ED50 (Monkey [5]) | half-life [6] | Activity (Monkey [7]) | half-life [8] | bioavailability [9] | bioavailability [10]
O=S(=O)(Nc1ccc(CCNC[C@H](O)c2cccnc2)cc1)c1ccc(-c2noc(CCCC3CCCCC3)n2)cc1 | 660 nM | 62% | 1970 nM | 19 nM | – | – | – | – | – | –
O=S(=O)(Nc1ccc(CCNC[C@H](O)c2cccnc2)cc1)c1ccc(-c2noc(CCCC3CCCC3)n2)cc1 | 962 nM | 83% | 5500 nM | 15 nM | – | – | – | – | – | –
CCCCc1nc(-c2ccc(S(=O)(=O)Nc3ccc(CCNC[C@H](O)c4cccnc4)cc3)cc2)no1 | 6500 nM | 86% | 55000 nM | 32 nM | – | – | – | – | – | –
CCC(=O)CCc1nc(-c2ccc(S(=O)(=O)Nc3ccc(CCNC[C@H](O)c4cccnc4)cc3)cc2)no1 | 12000 nM | 75% | 25000 nM | 66 nM | – | – | – | – | – | –
CCCCCCc1nc(-c2ccc(S(=O)(=O)Nc3ccc(CCNC[C@H](O)c4cccnc4)cc3)cc2)no1 | 1000 nM | 79% | 2000 nM | 35 nM | – | – | – | – | – | –
CCCCCc1nc(-c2ccc(S(=O)(=O)Nc3ccc(CCNC[C@H](O)c4cccnc4)cc3)cc2)no1 | 3000 nM | 53% | 5500 nM | 23 nM | 0.22 mg/kg | 2.4 h | inactive | 3.6 h | 36% | 62%
CC(O)CCCc1nc(-c2ccc(S(=O)(=O)Nc3ccc(CCNC[C@H](O)c4cccnc4)cc3)cc2)no1 (stereo not given in full) | 44000 nM | 20% | 10000 nM | > 100 nM | – | – | – | – | – | –
CCCc1nc(-c2ccc(S(=O)(=O)Nc3ccc(CCNC[C@H](O)c4cccnc4)cc3)cc2)no1 | 8500 nM | 70% | 8500 nM | 87 nM | – | – | – | – | – | –
CCCCCCCCc1nc(-c2ccc(S(=O)(=O)Nc3ccc(CCNC[C@H](O)c4cccnc4)cc3)cc2)no1 | 2500 nM | 90% | 9000 nM | 54 nM | – | – | – | – | – | –
Cc1nc(-c2ccc(S(=O)(=O)Nc3ccc(CCNC[C@H](O)c4cccnc4)cc3)cc2)no1 | 10000 nM | 15% | 10000 nM | > 100 nM | – | – | – | – | – | –
CC(=O)CCCc1nc(-c2ccc(S(=O)(=O)Nc3ccc(CCNC[C@H](O)c4cccnc4)cc3)cc2)no1 | 57000 nM | 69% | 70000 nM | 130 nM | – | – | – | – | – | –
O=C(CCc1nc(-c2ccc(S(=O)(=O)Nc3ccc(CCNC[C@H](O)c4cccnc4)cc3)cc2)no1)N1CCCC1 | 51000 nM | 49% | 30000 nM | 120 nM | – | – | – | – | – | –
CCCCCCCc1nc(-c2ccc(S(=O)(=O)Nc3ccc(CCNC[C@H](O)c4cccnc4)cc3)cc2)no1 | 1410 nM | 86% | 2000 nM | 39 nM | – | – | – | – | – | –
CCC(O)CCc1nc(-c2ccc(S(=O)(=O)Nc3ccc(CCNC[C@H](O)c4cccnc4)cc3)cc2)no1 (stereo not given in full) | 24000 nM | 53% | 56000 nM | 75 nM | – | – | – | – | – | –
CC(C)CCCc1nc(-c2ccc(S(=O)(=O)Nc3ccc(CCNC[C@H](O)c4cccnc4)cc3)cc2)no1 | 1000 nM | 58% | 26000 nM | 29 nM | – | – | – | – | – | –
O=S(=O)(Nc1ccc(CCNC[C@H](O)c2cccnc2)cc1)c1ccc(-c2noc(CCOC3CCCC3)n2)cc1 | 2670 nM | 70% | 8330 nM | 13 nM | – | – | – | – | – | –
